Columns and labels:
rat [1] = details: Combined chronic toxicity/carcinogenicity, wistar, Oral, Feed, dose end: 104 week, group: systemic
rat [2] = details: Multigenerational reproductive toxicity study, wistar, Oral, Feed, dose end: 3 generation
dog [3] = details: Subchronic oral toxicity in nonrodent, beagle, Capsule, dose end: 6 month, group: systemic, systemic / organ weight / liver / relative to body weight
mouse [4] = details: Carcinogenicity, cd1, Oral, Feed, dose end: 100 week, group: systemic
rat [5] = details: Prenatal developmental toxicity study, wistar, Oral, Gavage/Intubation, dose end: 16 GD
mouse [6] = details: Carcinogenicity; cd1; Oral; Feed; dose end: 24 month; group: systemic; systemic / in life observation / clinical signs / anogenital staining + systemic / in life observation / clinical signs / distended abdomens…
dog [7] = details: Chronic toxicity; beagle; Oral; Capsule; dose end: 52 week; group: systemic; systemic / clinical chemistry / alkaline phosphatase (alp/alk) / alkaline phosphatase (alp/alk) + systemic / organ weight / liver / nos + …
rat [8] = details: Combined chronic toxicity/carcinogenicity, wistar, Oral, Feed, dose end: 2 year, group: systemic
mouse [9] = details: Carcinogenicity, other, Oral, Feed, dose end: 98 week, group: systemic
rabbit = details: Prenatal developmental toxicity study, dutch, Oral, Gavage/Intubation, dose end: 18 GD
[10] = systemic / in life observation / clinical signs / tremors + systemic / hematology / platelet / platelet + systemic / organ weight / kidney…
[11] = group: offspring, systemic / pathology microscopic / liver / hypertrophy
[12] = group: parental, systemic / in life observation / clinical signs / tremors
[13] = systemic / organ weight / liver / absolute
[14] = systemic / pathology gross / liver / mass + systemic / pathology gross / lung / mass + systemic / pathology microscopic / liver / …
[15] = group: developmental, developmental / developmental malformation / bone / short supernumerary + systemic / in life observation / body weight / fetal weight
[16] = group: maternal, systemic / in life observation / body weight / body weight gain + systemic / in life observation / clinical signs / headflicking + systemic…
[17] = systemic / organ weight / kidney / nos + systemic / organ weight / liver / nos + systemic / clinical chemistry / aminopyrine-n-demethylase…
[18] = systemic / hematology / platelet / platelet + systemic / organ weight / liver / relative to body weight + systemic / hematology / leukocyte…
[19] = systemic / organ weight / kidney / absolute + systemic / organ weight / kidney / relative to body weight
[20] = group: developmental, developmental / developmental malformation / bone / incomplete ossification + systemic / in life observation / body weight / fetal weight
[21] = group: maternal, systemic / in life observation / body weight / body weight gain
[22] = group: maternal, systemic / in life observation / body weight / body weight gain + systemic / in life observation / body weight / body weight

CC1(C)C(C=C(Cl)Cl)C1C(=O)OCc1cccc(Oc2ccccc2)c1 (configuration not stated) [Permethrin]
LEL (rat [1]; systemic / hematology / platelet / platelet + systemic / pathology microscopic / liver / hypertrophy + systemic / pathology microscopic / …): 50 mg/kg/day
LOAEL (rat [1]; systemic / in life observation / clinical signs / tremors): 250 mg/kg/day
NEL (rat [1]; [10]): 10 mg/kg/day
NOAEL (rat [1]; [10]): 50 mg/kg/day
LEL (rat [2]; [11]): 25 mg/kg/day
LOAEL (rat [2]; [11]): > 125 mg/kg/day
NEL (rat [2]; [11]): < 25 mg/kg/day
NOAEL (rat [2]; [11]): ≥ 125 mg/kg/day
LEL (rat [2]; [12]): 125 mg/kg/day
LOAEL (rat [2]; [12]): 125 mg/kg/day
NEL (rat [2]; [12]): 50 mg/kg/day
NOAEL (rat [2]; [12]): 50 mg/kg/day
LEL (dog [3]): 50 mg/kg/day
LOAEL (dog [3]): > 250 mg/kg/day
NEL (dog [3]): 10 mg/kg/day
NOAEL (dog [3]): ≥ 250 mg/kg/day
LOAEL (mouse [4]; [13]): 807 mg/kg/day
NOAEL (mouse [4]; [13]): < 807 mg/kg/day
LEL (mouse [4]; [14]): 780 mg/kg/day
NEL (mouse [4]; [14]): < 780 mg/kg/day
LEL (rat [5]; [15]): 150 mg/kg/day
LOAEL (rat [5]; [15]): 150 mg/kg/day
NEL (rat [5]; [15]): 50 mg/kg/day
NOAEL (rat [5]; [15]): 50 mg/kg/day
LEL (rat [5]; [16]): 150 mg/kg/day
LOAEL (rat [5]; [16]): 150 mg/kg/day
NEL (rat [5]; [16]): 50 mg/kg/day
NOAEL (rat [5]; [16]): 50 mg/kg/day
LEL (mouse [6]): 3 mg/kg/day
LOAEL (mouse [6]): > 714 mg/kg/day
NEL (mouse [6]): < 3 mg/kg/day
NOAEL (mouse [6]): ≥ 714 mg/kg/day
LEL (dog [7]): 100 mg/kg/day
LOAEL (dog [7]): 100 mg/kg/day
NEL (dog [7]): 5 mg/kg/day
NOAEL (dog [7]): 5 mg/kg/day
LOAEL (rat [8]; systemic / in life observation / clinical signs / hypersensitivity + systemic / in life observation / clinical signs / tremors): 91.5 mg/kg/day
NOAEL (rat [8]; systemic / in life observation / clinical signs / hypersensitivity + systemic / in life observation / clinical signs / tremors + systemic / …): 36.9 mg/kg/day
LEL (rat [8]; [17]): 19.4 mg/kg/day
NEL (rat [8]; [17]): < 19.4 mg/kg/day
LOAEL (mouse [9]; [18]): > 287 mg/kg/day
NOAEL (mouse [9]; [18]): ≥ 287 mg/kg/day
LEL (mouse [9]; [19]): 26.9 mg/kg/day
NEL (mouse [9]; [19]): < 26.9 mg/kg/day
LOAEL (rabbit; group: developmental, developmental / developmental malformation / bone / incomplete ossification): 1200 mg/kg/day
LEL (rabbit; [20]): 1200 mg/kg/day
NEL (rabbit; [20]): 600 mg/kg/day
NOAEL (rabbit; [20]): 600 mg/kg/day
LOAEL (rabbit; [21]): 600 mg/kg/day
NOAEL (rabbit; [21]): < 600 mg/kg/day
LEL (rabbit; [22]): 600 mg/kg/day
NEL (rabbit; [22]): < 600 mg/kg/day

Source: EPA's ToxRefDB 2
